Data: patent US20150045313A1, “Ectoparasiticidal Methods and Formulations” (Eli Lilly and Company, priority 2009, published 2015)

Tests used:
[1] = tested on: Boophilus annulatus; assay: Whole-body spray treatment of Boophilus annulatus infestations on cattle; type: in vivo
Procedure: C) Efficacy Testing and comparison of topically applied spinetoram with spinosad for the treatment of Boophilus annulatus infestations on cattle. Technical spinetoram and technical spinosad both formulated as 25 g/L suspension concentrate formulations similar to commercial Elector. Stability assays (HPLC and LPT bioassays) were conducted to confirm potency over extended periods of time (5 weeks) at cool and shelf-temperatures. Cattle were pre-infested 21 d prior to treatment with larval-stage B. annulatus ticks resulting the presence of very high numbers of all three life-stages of this tick at the time of treatment. Test materials were diluted to 0.025% (250 ppm) and applied to cattle as whole-body topical sprays in a volume of 10 L per animal. There were a total of six animals per treatment group (n=6). Animals were housed in covered stalls under ambient conditions of temperature and humidity. Engorged, detached adult female ticks were retrieved from animals in each stall on a daily basis. Egg masses were weighed and eggs were set for hatching to assess viability. Efficacy was measured in terms of total numbers of female ticks per animal and index of fecundity (IF).
Means were tested by General Linear Model (GLM), 1-way ANOVA. Differences (P<0.05) among means were separated using Tukey's all pairwise comparison. Means within the same column followed by different letters were significant at the P<0.05 level.
Means were tested by General Linear Model (GLM), 2-way ANOVA with parasitic life stage and treatment group as main effects. NS denotes not significant.

[2] = tested on: Horn Fly (Haematobia irritans); assay: Cattle Ectoparasiticide Test, pour-on or spray against horn flies; type: in vivo
Excerpt: Cattle Ectoparasiticide Test (CET)/Horn Fly (Haematobia irritans) and/or Adult Tick (Amblyomma americanum): Cattle are housed in environmentally controlled rooms, 1 or 2 animals per room that have screened doors and ventilation system to prevent fly escape. Following treatment application, a defined number of horn flies are released into each room (typically at or above economic threshold of 200 flies per animal). After defined periods of time, the numbers of live horn flies remaining on animals are enumerated. If a combination horn fly and tick experiment is conducted, adult lone star ticks are placed into surgical stockinette enclosures that are glued onto the backs of cattle. Cattle are restrained in a modified head gate within environmentally controlled rooms. Horn flies may be enumerated, followed by determination of the numbers of dead ticks inside of containment units. Typically there are 2 containment units per animal and at least 2 animals per treatment group.
B) Therapeutic and residual efficacy testing of spinetoram and Elector against horn flies when applied topically to cattle as a pour-on or topical spray. Spinetoram (120 g/L), Elector (25 g/L spinosad) as described previously were used. Test material was applied to animals as either a whole-body topical spray or neat pour-on. Spinetoram was diluted in water to 25 g/L prior to application as a pour-on. Both materials were diluted in water to 0.04% (400 ppm) for application as a whole-body spray in a total volume of 1 L per animal. There were a total of six animals per treatment group (n=6) plus six negative control animals. Beef and dairy cattle were used. Following treatments, horn flies were released into rooms harboring cattle. Live flies were enumerated 24 h following challenges.

[3] = tested on: Cat Flea; assay: Flea Contact Assay (FCA)
Procedure: Flea Contact Assay (FCA)/Cat Flea: Test material is formulated in acetone at the desired exposure concentration and doubling dilutions performed to obtain a total of 10 testing levels. Approximately 0.05 ml of formulated material is dispensed into the bottom of a test tube containing a small amount of dog hair. Acetone is allowed to evaporate under a fume hood overnight. Approximately 10 mixed-sex adult cat flea are anesthetized using carbon dioxide and dispensed into each tube. Tubes are sealed using a ventilated plastic cap and incubated at 27° C. and 75-80% relative humidity. […] Nonlinear regression is used to model dose-mortality relationship and obtain relative potency (LD50) data compared to contemporaneous controls (acetone-only or fipronil).

[4] = tested on: Lone Star Tick; assay: Larval Packet Test (LPT)
Procedure: Larval Packet Test (LPT)/Ticks: Test material is formulated in a 2:1 ratio of trichloroethylene: olive oil. Tissue biopsy bags are saturated with 1 ml of formulated material (n=3 per test level), and bags are allowed to dry under a fume hood for at least 2 hours. Approximately 50-100 larval-stage ticks are placed into each bag, and the bag is sealed using a plastic dialysis clip and incubated for 24 h at 27° C. and 95% relative humidity. Bags are then opened, and live/dead ticks are enumerated. Nonlinear regression is used to model dose-mortality relationship and obtain relative potency (LD50) data compared to contemporaneous controls (solvent-only or fipronil).

[5] = tested on: House Fly; assay: Adult House Fly Assay (AhsF); set-up: species or system Musca domestica; settings: House Fly, 24 h
Procedure: Adult Stable or House Fly Assay (ASF, AhsF). This assay is conducted essentially as described in White, W. H., S. M. Bauer, X. Zhao et al., Comparison of in vitro and in vivo ectoparasiticide activity of an experimental benzimidazole-carbamate with permethrin and amitraz, J. Med. Entomol. 42, 207-211 (2005); and White, W. H., C. M. McCoy, J. A. Meyer et al., Knockdown and mortality comparisons among spinosad-, imidacloprid-, and methomyl-containing baits against susceptible Musca domestica (Diptera: Muscidae) under laboratory conditions, J. Econ. Entomol. 100, 155-163 (2007).
Test material is formulated in DMSO at 10 mM. Doubling dilutions in like solvent are made to yield 10 testing levels. Materials are diluted in either bovine serum (stable flies) or 5% glucose solution (house flies) to obtain desired exposure concentrations from 200-0.39 μM. Approximately 3 ml of diluted test material is placed into a test tube (n=3 per test level) and a dental wick is used to absorb fluid. One dental wick is placed into a small weigh boat inside of a 100 mm Petri dish. Approximately 10 mixed-sex adult flies are anesthetized using carbon dioxide and counted into each dish. Dishes are incubated at 27° C. and 50-70% relative humidity. Flies recover from anesthesia and feed on compound-soaked dental wicks. After 24 h, live/dead flies are enumerated. Nonlinear regression is used to model dose-mortality relationship and obtain relative potency (LD50) data compared to contemporaneous controls (solvent-only or permethrin).

[6] = cattle, 0.025% AI whole-body spray, mean ± SD

With Spinetoram the “initial/knockdown activity against B. annulatus” value ([1]; cattle, 0.025% AI) was “poor”, the “Number ♀♀ Ticks per Calf” value [1, 6] was 2405 ± 306 a and the “Total Index of Fecundity (IF)” value [1, 6] was 287 ± 35.4 a. For the same substance, the “Percentage Control of the IF” value ([1]; cattle, 0.025% AI whole-body spray, therapeutic efficacy) was 28.0 ± 8.9 a %, the “Percentage control, Adult” value ([1]; parasitic life stage adult, 0.025% AI) was 17.2 ± 25.0% and the “Percentage control, Larval” value ([1]; parasitic life stage larva, 0.025% AI) was 38.6 ± 10.6%. For the same substance, the “Percentage control, Nymph” value ([1]; parasitic life stage nymph, 0.025% AI) was 31.6 ± 20.8%, the “residual efficacy, mean percentage control of the IF, Week 1” value ([1]; ticks infested as larvae Week 1 after treatment) was 95.3 ± 3.3% and the “residual efficacy, mean percentage control of the IF, Week 2” value ([1]; ticks infested as larvae Week 2 after treatment) was 96.7 ± 2.3%. The “residual efficacy, mean percentage control of the IF, Week 3” value ([1]; ticks infested as larvae Week 3 after treatment) was 89.3 ± 8.0%, the “residual efficacy, mean percentage control of the IF, Week 4” value ([1]; ticks infested as larvae Week 4 after treatment) was 80.4 ± 11.5% and the “GM percent horn fly reduction after 24 hrs, Pour-on” value ([2]; cattle, pour-on 2 mg/kg, Initial) was 100%. For the same substance, the “GM percent horn fly reduction after 24 hrs, Spray” value ([2]; cattle, whole-body spray 0.04% AI, Initial) was 99.9%, the “therapeutic efficacy compared with Elector” value ([2]; horn fly infested cattle, pour-on (2 mg/kg) or whole-body spray (0.04% AI)) was “equivalent therapeutic efficacy” and the “Potency (EC50 ng/cm^2) 24 h” value ([3]; Cat Flea, 24 h) was 1.292 ng/cm^2. For the same substance, the “Spinetoram: Spinosad Potency Ratio 24 h” value ([3]; Cat Flea, 24 h) was 2.4, the “Potency (EC50 ng/cm^2) 48 h” value ([3]; Cat Flea, 48 h) was 0.6238 ng/cm^2 and the “Spinetoram: Spinosad Potency Ratio 48 h” value ([3]; Cat Flea, 48 h) was 2.4. For the same substance, the “times more potent than spinosad in vitro” value ([3]; adult cat fleas, time not stated) was 2.4 times, the “Spinetoram/Spinosad Potency Ratio” value ([4]; Lone Star Tick) was 0.4 and the “Potency (EC50)” value ([4]; Lone Star Tick larvae, 24 h) was 531.6 ppm. The “Spinetoram: Spinosad Potency Ratio” value [5] was 5.5 and the EC50 ([5]; read-out: Potency (24 h EC50 μM)) was 2.18 µM.
